Test results published in patent US9469645B2, “Compounds and compositions for the treatment of parasitic diseases” (Novartis AG, priority 2009, dated 2016).
Like-named read-outs stand apart in the source and are kept apart here.

Key:
[1] = tested on: 3D7 P. falciparum strain; assay: parasite proliferation assay in infected red blood cells (SYBR Green I); type: cell-based, Plasmodium falciparum; conditions: 3D7 strain, read-out: EC50 3D7 strain
Procedure, shortened: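 P. falciparum 3D7 grown in O+ human erythrocytes to 3–8% parasitemia and exposed to compounds. Proliferation read as the increase in parasite DNA. Detection used SYBR Green I in saponin/triton-X/EDTA lysis buffer, with overnight lysis at room temperature.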

[2] = tested on: W2 strain; assay: parasite proliferation assay in infected red blood cells (SYBR Green I), W2 strain; type: cell-based
Excerpt: Compounds of the invention can be assayed to measure their capacity to inhibit proliferation of parasitemia in infected red blood cells. The proliferation is quantified by the addition of SYBR Green I (INVITROGEN)® dye which has a high affinity for double stranded DNA.

[3] = Plasmodium falciparum, 3D7, Erythrocyte
[4] = Plasmodium falciparum, Erythrocyte

Row | SMILES | EC50 [1, 3] | EC50 [2, 4] | EC50 ([2]; Erythrocyte) | EC50 [1] | EC50 [2]
1 | CC1(C)c2nc(-c3ccc(F)cc3)c(Nc3cccc(OC(F)(F)F)c3)n2CCN1C(=O)CN [Compound 650] | 12 nM | 9 nM | – | – | –
2 | Cc1ccc(Nc2c(-c3ccc(F)cc3)nc3n2CCN(C(=O)[C@H](CC(=O)OCc2ccccc2)NC(=O)OC(C)(C)C)C3)cc1 [Compound 151] | 820 nM | – | 386 nM | – | –
3 | CC(C)(N)C(=O)N1CCn2c(nc(-c3ccc(F)cc3)c2Nc2ccc(Cl)c(F)c2)C1 [Compound 94] | 40 nM | – | 52 nM | – | –
4 | CCCC[C@H](NC)C(=O)N1CCn2c(nc(-c3ccc(F)cc3)c2Nc2ccc(C)cc2)C1 [Compound 389] | 60 nM | – | 51 nM | – | –
5 | Cc1ccc(Nc2c(-c3ccc(F)cc3)nc3n2CCN(C(=O)[C@@H](O)CC2CCCCC2)C3)cc1 [Compound 145] | 90 nM | – | 68 nM | – | –
6 | Cc1ccc(Nc2c(-c3ccc(F)cc3)nc3n2CCN(C(=O)[C@H](N)CC(=O)O)C3)cc1 [Compound 287] | 4360 nM | – | 7260 nM | – | –
7 | Cc1ccc(Nc2c(-c3ccc(F)cc3)nc3n2CCN(C(=O)CC(N)C(F)(F)F)C3)cc1 (stereo not shown) [Compound 190] | 940 nM | – | 1070 nM | – | –
8 | Cc1ccc(Nc2c(-c3ccc(F)cc3)nc3n2CCN(C(=O)[C@@H](N)C(C)(C)C)C3)cc1 [Compound 170] | 90 nM | – | 54 nM | – | –
9 | CC(C)(C)C1CCC(Nc2c(-c3ccc(F)cc3)nc3n2CCN(C(=O)CN)C3(C)C)CC1 (stereo not shown) [Compound 663] | 1060 nM | 1660 nM | – | – | –
10 | CC(C)(C)CC(C)(C)Nc1c(-c2ccccc2-c2cccs2)nc2ccccn12 [Compound 741] | 5250 nM | 4830 nM | – | – | –
11 | O=C(C1CNCCO1)N1CCn2c(nc(-c3ccc(F)cc3)c2Nc2ccc(Cl)c(F)c2)C1 (stereo not shown) [Compound 367] | 190 nM | – | 148 nM | – | –
12 | CCc1ccc(Nc2c(-c3ccc(F)cc3)nc3n2CCN(C(=O)CN)C3(C)C)cc1 [Compound 648] | 9 nM | 8 nM | – | – | –
13 | CN(C)C1CCN(c2c(-c3ccc(F)cc3)nc3n2CCN(C(=O)CN)C3(C)C)C1 (stereo not shown) [Compound 668] | 3430 nM | > 10000 nM | – | – | –
14 | CC(C)(N)C(=O)N1CCn2c(nc(-c3ccc(F)cc3)c2-c2ccc(F)cc2)C1 [Compound 31] | 13100 nM | – | 6890 nM | – | –
15 | Cc1ccc(Nc2c(-c3ccncc3)nc3n2CCN(C(=O)CN)C3)cc1 [Compound 382] | 1050 nM | – | 1040 nM | – | –
16 | CC(C)(C)OC(=O)N[C@@H](CC(=O)OCc1ccccc1)C(=O)N1CCn2c(nc(-c3cccc(F)c3)c2Nc2ccc(F)cc2)C1 [Compound 237] | 7190 nM | – | 5720 nM | – | –
17 | Cc1cc(Nc2c(-c3cccc(F)c3)nc3n2CC(=O)N(CCCN)C3(C)C)ccc1F [Compound 689] | 512 nM | 295 nM | – | – | –
18 | N[C@H](C(=O)N1CCn2c(nc(-c3ccc(F)cc3)c2Nc2ccc(F)cc2)C1)C(F)(F)F [Compound 195] | 20 nM | – | 20 nM | – | –
19 | Cc1c(Cc2ccccc2)nc2n1[C@H](CCc1ccccc1)C(=O)N[C@@H]2Cc1ccccc1 [Compound 289, (5R,8R)-2,8-dibenzyl-3-methyl-5-phenethyl-7,8-dihydroimidazo[1,2-a]pyrazin-6(5H)-one] | 3880 nM | – | 747 nM | – | –
20 | Cc1ccc(Nc2c(-c3ccc(F)cc3)nc3n2CCN(C(=O)[C@@H]2Cc4[nH]cnc4CN2)C3)cc1 [Compound 176] | 2750 nM | – | 1790 nM | – | –
21 | Cc1ccc(Nc2c(-c3ccc(F)cc3)nc3n2CCN(C(=O)C2CCNC2)C3)cc1 (stereo not shown) [Compound 95] | – | – | – | 1540 nM | 707 nM
22 | Cc1ccc(Nc2c(-c3ccc(F)cc3)nc3n2CCN(C(=O)C(Oc2ccccc2C)C(C)C)C3)cc1 (stereo not shown) [Compound 208] | 5870 nM | – | 1060 nM | – | –
23 | Cc1ccc(Nc2c(-c3ccc(F)cc3)nc3n2CCN(C(=O)[C@H](C)N(C)Cc2ccccc2)C3)cc1 [Compound 388] | 3220 nM | – | 1770 nM | – | –
24 | CCCCCNc1ccc(C[C@H](NC(=O)OC(C)(C)C)C(=O)N2CCn3c(nc(-c4ccc(F)cc4)c3Nc3ccc(C)cc3)C2)cc1 [Compound 267, (S)-tert-butyl 1-(2-(4-fluorophenyl)-3-(p-tolylamino)-5,6-dihydroimidazo[1,2-a]pyrazin-7 (8H)-yl)-1-oxo-3-(4-(pentylamino)phenyl)propan-2-ylcarbamate] | 990 nM | – | 474 nM | – | –
25 | CC1(C)c2nc(-c3ccc(F)cc3)c(NC3CCOCC3)n2CCN1C(=O)CN [Compound 672] | 9840 nM | 7140 nM | – | – | –

Row | SMILES | EC50 [1, 3] | EC50 [2, 4] | EC50 ([2]; Erythrocyte) | EC50 [1] | EC50 [2]
26 | Cc1ccc(Nc2c(-c3ccc(F)cc3)nc3n2CCN(C(=O)C2CCCNC2)C3)cc1 (stereo not shown) [Compound 92] | – | – | – | 1300 nM | 1480 nM
27 | Cn1cc(CC(=O)N2CCn3c(nc(-c4ccc(F)cc4)c3Nc3ccc(Cl)c(F)c3)C2)c2ccccc21 [Compound 357] | 7490 nM | – | 4710 nM | – | –
28 | O=C(CN1CCC(F)CC1)N1CCn2c(nc(-c3ccc(F)cc3)c2Nc2ccc(F)cc2)C1 [Compound 60] | 2460 nM | – | 2130 nM | – | –
29 | CC1(C)c2nc(-c3ccc(F)cc3)c(NC3CCCC3)n2CCN1C(=O)CN [Compound 670] | 402 nM | 711 nM | – | – | –
30 | Cc1ccc(Nc2c(-c3cccc(Cl)c3)nc3n2CCN(C(=O)CN)C3)cc1 [Compound 383] | 50 nM | – | 32 nM | – | –
31 | CCC(=O)OC(C(=O)N1CCn2c(nc(-c3ccc(F)cc3)c2Nc2ccc(C)cc2)C1)c1ccccc1 (stereo not shown) [Compound 268] | 10 nM | – | 12 nM | – | –
32 | Cc1ccc(Nc2c(-c3ccc(F)cc3)nc3n2CCN(C(=O)CN2CCC(CCN)CC2)C3)cc1 [Compound 178] | 3050 nM | – | 3320 nM | – | –
33 | O=C(CN1CCCC1)N1CCn2c(nc(-c3ccc(F)cc3)c2Nc2ccc(F)cc2)C1 [Compound 33] | 740 nM | – | 1620 nM | – | –
34 | CC1(C)c2nc(-c3ccc(F)cc3)c(Nc3ccc(F)cc3)n2CCN1C(=O)CNC(=O)CCc1ccccc1 [Compound 726] | 1920 nM | 1480 nM | – | – | –
35 | Fc1ccc(Nc2c(-c3cccc(F)c3)nc3n2CCNC3)cc1 [Compound 191] | 170 nM | – | 151 nM | – | –
36 | Cc1ccc(Nc2c(-c3ccc(F)cc3)nc3n2CCN(C(=O)CC(C)(C)O)C3)cc1 [Compound 100] | 150 nM | – | 143 nM | – | –
37 | CC1(C)c2nc(-c3ccc(F)cc3)c(N3CCC(N4CCCCC4)CC3)n2CCN1C(=O)CN [Compound 669] | 3980 nM | > 10000 nM | – | – | –
38 | CC1(C)c2nc(-c3ccc(F)cc3)c(Sc3ccc(F)cc3)n2CCN1C(=O)CN [Compound 715] | 6 nM | 6 nM | – | – | –
39 | Cc1ccc(Nc2c(-c3ccc(F)cc3)nc3n2CCN(C(=O)C(C)(CO)CO)C3)cc1 [Compound 245] | 2530 nM | – | 1800 nM | – | –
40 | CN(C)CC(=O)N1CCn2c(nc(-c3ccc(F)cc3)c2Nc2ccc(F)cc2)C1 [Compound 22] | 1300 nM | – | 691 nM | – | –
41 | Cc1ccc(Nc2c(-c3ccc(F)cc3)nc3n2CCN(C(=O)C2(N)CCC2)C3)cc1 [Compound 139] | 160 nM | – | 165 nM | – | –
42 | Cc1ccc2nc(-c3ccc(F)cc3)c(Nc3ccc(Cl)c(F)c3)n2c1 [Compound 752] | 1620 nM | 2380 nM | – | – | –
43 | Cc1c(Cc2ccccc2)nc2n1[C@H](CCc1ccccc1)CN(C(=O)c1cccnc1)[C@H]2Cc1ccccc1 [Compound 283] | 5520 nM | – | 3490 nM | – | –
44 | Cc1ccc(Nc2c(-c3ccc(F)cc3)nc3n2CCN(C(=O)[C@@H](N)Cc2ccc(N)cc2)C3)cc1 [Compound 157] | 100 nM | – | 97 nM | – | –
45 | CC(C)(N)C(=O)N1CCn2c(nc(-c3ccc(F)cc3)c2Nc2ccc(F)c(C#N)c2)C1 [Compound 636] | 210 nM | 183 nM | – | – | –
46 | Cc1ccc(Nc2c(-c3ccc(F)cc3)nc3n2CCN(C(=O)C(C)(C)N)C3)cc1F [Compound 631] | 49 nM | 62 nM | – | – | –
47 | CC1(C)c2nc(-c3ccc(F)cc3)c([S+]([O-])c3cccc(F)c3)n2CCN1C(=O)CN (stereo not shown) [Compound 719] | 481 nM | 361 nM | – | – | –
48 | Cc1ccc(Nc2c(-c3ccc(F)cc3)nc3n2CCN(C(=O)C2(N)CCCCC2)C3)cc1 [Compound 141] | 70 nM | – | 90 nM | – | –
49 | CC(C)(N)C(=O)N1CCn2c(nc(-c3ccccc3)c2Nc2ccc(F)cc2)C1 [Compound 11] | 200 nM | – | 168 nM | – | –
50 | CN1Cc2nc(-c3ccc(F)cc3)c(Nc3ccc(F)c(F)c3)n2C(C)(C)C1 [Compound 611] | 7670 nM | 5760 nM | – | – | –
